Data on three molecules can be found in patent US10302663B2, “Method of assessing pancreatic beta-cell function” (METABOLON, INC., priority 2011, dated 2019).

One assay concerns INS-1e cells. The experiment in a line: Glucose-stimulated insulin release in INS-1e cells. Type of assay: cell-based, rat. The note with it: INS-1e cells incubated 48 h with physiological concentrations of metabolite, then 3.3, 11, 20 mM glucose or 20 mM glucose+10 mM arginine, FIG. 2. As to the method: Clonal INS-1e cells, derived and selected from a parental rat insulinoma INS-1 cell line (University of Geneva, Geneva, Switzerland), were grown in monolayer culture in RPMI 1640 medium containing 11.1 mM glucose. The culture medium was supplemented with 10% heat-inactivated fetal calf serum, 1 mM sodium pyruvate, 10 mM HEPES, 2 mM glutamine, 50 μmol/liter β-mercaptoethanol, 100 U/ml penicillin, and 100 μg/ml streptomycin. Cells were cultured at 37 C in a humidified 95% air-5% CO2 atmosphere. Cells were seeded onto wells at a density of 1.5×10^5 cells/well at least 96 h before using them in the insulin secretion experiments. Tissue culture reagents were obtained from Life Technologies, Inc. Invitrogen (Basel, Switzerland).
The insulin secretory response to glucose was tested in INS-1e cells. When cells had reached approximately 80% confluence, cells were incubated for 48 h in fresh RPMI 1640 medium containing 11.1 mM glucose, in the presence or absence of different physiological concentrations of metabolites alpha-hydroxybutyrate (2-HB) (Sigma-Aldrich) and linoleoyl-glycerophosphocholine (L-GPC) (Avanti Polar Lipids). Next, cells were maintained for 1 h in glucose-free Krebs-Ringer bicarbonate HEPES buffer containing 135 mm NaCl, 3.6 mm KCl, 5 mm NaHCO3, 0.5 mm Na H2PO4, 0.5 mm MgCl2, 1.5 mm CaCl2, 10 mm HEPES, and BSA 0.1% (glucose-free; pH 7.4; starvation period) and then washed with glucose-free Krebs-Ringer bicarbonate-HEPES buffer and subsequently incubated for […] with Krebs-Ringer bicarbonate-HEPES buffer containing 3.3, 11, 20 mM glucose, or 20 mM glucose+10 mM arginine. At the end of incubation, supernatants were collected to measure insulin concentration (Linco Research, St. Charles, Mo.). Cellular insulin contents were determined in acid-ethanol extracts. The insulin secretory response to glucose was expressed as the ratio of insulin concentration in the supernatant to the cellular insulin content.

Assay [1] can be described thus: Beta-cell biomarker levels in fasted plasma in response to pioglitazone therapy in IGT subjects. Type of assay: in vivo, human. The note with it: pioglitazone 45 mg/day, 2.4 years, baseline vs study end. As to the method:
In another study, the relationship between changes in the IS/IR Disposition index and changes in the levels of the beta-cell function biomarkers, AHB and LGPC following drug treatment were determined. The study cohort consisted of 431 IGT subjects (FPG=105, 2-h PG [OGTT]=168, HbA1C=5.5%) who were randomized to pioglitazone (45 mg/day) or placebo and followed for 2.4 years. Fasted plasma samples were analyzed at baseline and study end for AHB, LGPC, insulin, HbA1c and Matsuda index.
A method for measuring each of the biomarkers listed in Table 4 in EDTA human plasma was developed. Human plasma samples were spiked with internal standards and subjected to protein precipitation as described below. Following centrifugation, the supernatant was removed and injected onto a Waters Acquity/Thermo Quantum Ultra LC-MS-MS system using four different chromatographic systems (column/mobile phase combinations).

On to `CCCCC/C=C\C/C=C\CCCCCCCC(=O)OC[C@@H](O)COP(=O)([O-])OCC[N+](C)(C)C` [LGPC, linoleoyl lysophosphatidylcholine], for which the “effect on glucose-stimulated insulin release (ratio of insulin in supernatant to cellular insulin content)” value in the assay on INS-1e cells was “stimulated the glucose stimulated release of insulin”; with INS-1e cells (listed as Linoleoyl-GPC) it was “stimulatory effect”.
For the molecule `CC[C@H](O)C(=O)O` [AHB, 2-hydroxybutyrate], the “effect on glucose-stimulated insulin release (ratio of insulin in supernatant to cellular insulin content)” value in the assay on INS-1e cells is recorded as “inhibited the glucose stimulated release of insulin”; in the assay with INS-1e cells (listed as 2-hydroxybutyrate) it was “inhibitory effect”.
On to `CCc1ccc(CCOc2ccc(CC3SC(=O)NC3=O)cc2)nc1` (stereo not drawn) [PIO, pioglitazone], for which the “Fold change of Linoleoyl-GPC Before and after PIO” value in assay [1] (p<0.005) is reported as 1.21 ↑. In addition, the “Fold change of α-HB Before and after PIO” value in assay [1] (p=0.001) is 0.90 ↓.
